# What was measured:
# [1] = test system: CRC cell lines (SW620, HT-29, HCT 116+/−p53, RKO, and LS411N); assay: Alamar Blue cell viability assay, human CRC panel; assay type: cell-based; details: SW620, 72 hours
# Experimental: FIGS. 4A-4F show AP-4-139B is efficacious as a single agent against human CRC in vitro and in vivo. FIG. 4A: Three CRC cell lines (HT-29, LS411N, and SW620) were treated with 10 μM of PET-16 or AP-4-139B for 48 hours. Cell were then subjected to viability assays using Trypan Blue exclusion. *** p<0.001. […] FIGS. 4B-4C: A panel of six CRC cell lines (SW620, HT-29, HCT 116+/−p53, RKO, and LS411N) were plated at a density of 1,000 cells per well in 96-well plates. The next day, cells were treated with the indicated inhibitors for 72 hours. Cells were then subjected to the Alamar Blue cell viability assays. Shown are representative IC50 values of an average of six technical replicates and two biological replicates. FIG. 4D: 2.5×10^6 HT-29 cells were injected subcutaneously into the right flank of NSG mice. Once tumors reached an approximate volume of 100 mm^3, mice were separated randomly into two groups: control vs. AP-4-139B. Mice were treated with 12.5 mg/kg AP-4-139B three times a week. All mice were euthanized 22 days after the start of treatment. Tumor volumes were recorded using digital calipers and using the formula v=length×width^2×0.52. *** p<0.001. n=10 mice per group. FIG. 4E: Immunohistochemistry (IHC) analysis of HT-29 xenograft tumors treated with AP-4-139B. Shown are representative images (4-6 random fields of view per condition) of Ki67 (proliferation) and Cleaved Lamin A (cell death). n=4 mice per group. Scale bar=100 μm. Respective IgG antibody was used as the negative control.
# MC38 and HT-29 cells = assay: Extracellular ATP release (CellTiter-Glo); assay type: cell-based; details: MC38 cells, increasing concentrations, 3 hours
# Experimental: FIG. 6A: 1×10^6 MC38 cells were injected subcutaneously into the right flank of 6-8-week-old male C57Bl/6 mice. Once tumors reached an approximate volume of 100 mm^3, mice were treated with AP-4-139B (10 mg/kg) every 48 hours. 20 days after the start of treatment, tumors were excised, weighed, minced and digested. Tumor-infiltrating and splenic conventional CD4 (cCD4) (Live CD45^+ DUMP^− CD3^+CD4^+Foxp3^−), Tregs (Live CD45^+ DUMP^− CD3^+CD4^+Foxp3^+), CD8 (Live CD45^+ DUMP^− CD3^+CD8^+) T-cells, and Dendritic Cells (Live CD45^+ DUMP^− CD3^−CD11c^+MHCII^+) numbers were assessed by flow cytometry. * p<0.05, n.s. not significant. n=8 mice per group. FIG. 6B: MC38 and HT-29 cells were treated with the indicated concentrations of AP-4-139B for either 8 or 24 hours; media was collected and subjected to WB for HMGB1. Data shown are representative of three technical replicates. FIG. 6C: MC38 and HT-29 cells were treated with the indicated concentrations of AP-4-139B for three hours and then assayed for extracellular ATP release. Each graphical representation indicates the mean±the standard deviation of three independent experiments relative to control (DMSO-treated) cells.
# FIG. 6D: MC38 cells were treated with 5 μM AP-4-139B for 24 hours and subjected to flow cytometry, using Alexa488-tagged calreticulin antibody. *** p<0.001, n=4 biological replicates performed in duplicate. FIG. 6E: MC38 cells were treated with increasing concentrations of AP-4-139B, G-TPP, 17-AAG or Metformin for 3 hours and then assayed for extracellular ATP release. Three independent cultures were assayed for each treatment, and DMSO-treated cells were used as internal controls. Error bars represent standard deviation (SD).
# The XF Cell Mito Stress Test was performed. Briefly, HT-29 (10,000 cells/well), IMR90 (15,000 cells/well), and 1205Lu (15,000 cells/well) were plated in Seahorse 96-well cell culture microplates, treated with the respective inhibitors for 24 hours, and subjected to the Seahorse XF Cell Mito Stress Test, according to the manufacturer's protocol (Agilent Technologies). For extracellular HMGB1 release, 1×10^6 MC38 cells were plated in 10-cm dishes. The next day, cells were treated with the indicated concentrations of AP-4-139B for 8 or 24 hours in serum-free media. Media was collected and spun down at 2,000 rpm for 5 minutes to pellet any remaining cells or debris. Media was then transferred to Amicon Ultra 15, 10K tubes and spun down at 4,000 rpm for 45 minutes, according to the manufacturer's protocol. […] For extracellular ATP release, ATP was measured using the CellTiter-Glo Kit (Promega catalog #G7570). […] 10 μl of CellTiter-Glo Reaction Mix was then mixed with 10 μl of culture media; the luminescence signal was detected using a luminometer.
# full length human HSP70 = target: T1, full length human HSP70 (Homo sapiens, UniProt P0DMV8); assay: HSP70 mediated ATPase assay (Transcreener ADP-FI); assay type: biochemical
# T1 construct: Five μL of 30 nM full length human HSP70 in assay buffer
# T1 sequence (P0DMV8 whole entry): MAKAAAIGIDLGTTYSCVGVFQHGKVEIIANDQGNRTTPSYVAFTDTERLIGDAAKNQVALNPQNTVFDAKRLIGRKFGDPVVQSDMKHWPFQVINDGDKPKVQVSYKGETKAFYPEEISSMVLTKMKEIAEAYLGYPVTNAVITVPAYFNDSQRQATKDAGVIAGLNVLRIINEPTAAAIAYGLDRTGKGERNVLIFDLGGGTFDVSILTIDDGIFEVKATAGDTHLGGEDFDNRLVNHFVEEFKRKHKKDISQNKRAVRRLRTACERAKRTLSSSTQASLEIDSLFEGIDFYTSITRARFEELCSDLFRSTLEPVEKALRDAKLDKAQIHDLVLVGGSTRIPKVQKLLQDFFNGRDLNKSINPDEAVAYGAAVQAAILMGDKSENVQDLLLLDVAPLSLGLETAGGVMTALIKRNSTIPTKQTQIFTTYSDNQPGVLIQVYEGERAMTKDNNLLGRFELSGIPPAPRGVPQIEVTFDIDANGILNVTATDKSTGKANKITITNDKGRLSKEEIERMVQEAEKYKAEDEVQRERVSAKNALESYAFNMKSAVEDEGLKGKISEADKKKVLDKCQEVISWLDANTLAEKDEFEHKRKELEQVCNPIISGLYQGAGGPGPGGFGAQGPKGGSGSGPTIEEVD
# Experimental: FIGS. 1A-1D show ATPase inhibition and direct binding of a novel HSP70 inhibitor. FIG. 1A: Compounds AP-3-97 and AP-4-139B are direct inhibitors of HSP70. HSP70 mediated ATPase activity was assessed using the TRANSCREENER® ADP-FI assay. Five microliters of 30 nM purified human HSP70 in assay buffer was added to test compounds for 30 minutes, followed by addition of excess ATP. After 15 minutes, reactions were stopped and fluorescence was assessed on a plate reader. Data are normalized to percent inhibition, where 100% is the value in the absence of HSP70, and 0% is the value in the presence of HSP70. Compounds shown include PET-16 (positive control) and the novel HSP70 inhibitors AP-3-97 and AP-4-139B. VY-3-277 was used as a negative control. FIG. 1B: Compound AP-4-139B binds HSP70. Whole cell extracts (WCE) from H1299 cells were incubated with 10 μM Biotin or with a Biotin-labeled variant of AP-4-139B (Biotin-AP-4-139B) for 5 hours. Biotin-AP-4-139B containing complexes were captured using NeutrAvidin resins and separated by SDS-PAGE. The Coomassie-stained protein band of approximately 70 kDa was excised and subjected to tryptic digestion and liquid chromatography-tandem mass spectrometry, and identified to be HSP70. FIG. 1C: H1299 cells were pre-treated with 10 μM of VY-3-277, PET-16, or AP-4-139B for 1 hour prior to the addition of 10 μM Biotin-AP-4-139B for 5 hours. Biotin-AP-4-139B containing complexes were captured by NeutrAvidin resins and immunoblotted using the indicated antibodies following SDS-PAGE. Whole cell extracts (WCE) were examined for the expression of HSP70 (input) and GRP75 (input) by Western blot analysis. FIG. 1D: Compound AP-4-139B directly binds purified human HSP70. […] Data were analyzed using the evaluation software from Biacore and the resulting sensograms were exported and re-plotted in GraphPad Prism.
# HSP70 mediated ATPase activity was measured using the Transcreener® ADP-FI assay (BellBrook Labs). […] After 30 minutes, fluorescence at 560/620 nm was measured using the Envision plate reader. […]
# [2] = target: N-terminal HIS tagged HSP70 (Homo sapiens, UniProt P0DMV8); assay: Small molecule binding to HSP70 using SPR (Biacore T200)
# N-terminal HIS tagged HSP70, sequence (P0DMV8 whole entry): as above
# Experimental: SPR experiments were conducted using the Biacore T200. Approximately 20,000 RU of N-terminal HIS tagged HSP70 was immobilized on a multi-dentate NTA derivatized linear carboxylate sensor chip (NICH1500M, Xantec Bioanalytics). The running buffer was PBS containing 2 mM MgCl2, 0.05% Tween, and 5% DMSO. Test compounds were diluted at 20× final concentration in 100% DMSO and then diluted into running buffer without DMSO so that the DMSO concentrations in both the sample and the running buffer were similar. Flow rate was 30 μL/min, contact time for each sample concentration was 30 seconds, followed by a 60 second dissociation time. Data were analyzed using the Biacore evaluation software and the resulting sensograms exported and re-plotted in GraphPad Prism.
# The next studies sought to determine whether AP-4-139B interacts directly with HSP70. To accomplish this, full-length His-tagged human HSP70 was used, and it was immobilized on a high affinity poly-Ni-NTA sensor chip for surface plasmon resonance experiments on a Biacore T200. This HSP70-loaded chip was incubated with AP-4-139B or the negative control VY-3-277. As a positive control the adenosine-derived HSP70 inhibitor Ver-155008 was used (Massey et al., Cancer Chemother Pharmacol. 2010 August; 66(3):535-45).
smiles,measurement,setting,value
"O=c1[nH]cc(F)c(=O)[nH]1 [5-FU, 5-fluoro-uracil]",sensitivity of SW620 cells,[1],highly resistant
"C=CCNC1=C2C[C@@H](C)C[C@H](OC)[C@H](O)[C@@H](C)/C=C(\C)[C@H](OC(N)=O)[C@@H](OC)/C=C\C=C(/C)C(=O)NC(=CC1=O)C2=O [17-AAG, reference compound]","ATP release, comparison of compounds",MC38 and HT-29 cells,"induced ATP release, albeit to a lesser extent"
"O=S(=O)(NCCCCCC[P+](c1ccccc1)(c1ccccc1)c1ccccc1)c1ccc2c(c1)oc1ccccc12 [AP-3-97, (6-(Dibenzo[b,d]furan-3-sulfonamido)hexyl)triphenylphosphonium bromide]",inhibition of HSP70 ATPase activity (in words),full length human HSP70,markedly superior potency
"N#Cc1ccc(COC[C@H]2O[C@@H](n3c(NCc4ccc(Cl)c(Cl)c4)nc4c(N)ncnc43)[C@H](O)[C@@H]2O)cc1 [Ver-155008, reference compound]",binding to sensor chips loaded with HSP70,[2],reproducibly bound in concentration-dependent manner
"CN(C)C(=N)N=C(N)N [metformin, reference compound]","ATP release, comparison of compounds",MC38 and HT-29 cells,"induced ATP release, albeit to a lesser extent"
O=C1[O][Pt]2([NH][C@@H]3CCCC[C@H]3[NH]2)[O]C1=O [oxaliplatin],sensitivity of SW620 cells,[1],highly resistant
